According to US7838271B2, “Microbiological method for producing amides” (priority 2001, dated 2010):
Like-named read-outs stand apart in the source and are kept apart here. Marks after values point to notes of the source that are not given here.

Legend:
[1] = system: purified Rhodococcus sp. FZ4 nitrile hydratase; experiment: KM value for 3-cyanopyridine, purified nitrile hydratase; assay type: biochemical; conditions: purified enzyme, potassium phosphate buffer pH 7.0, 20° C.
Description: The reaction mixture was incubated at 20° C. for 10 min. The reaction was stopped by adding methanol and the amount of nicotinamide produced was determined by means of HPLC according to Example 1.

[2] = system: Rhodococcus rhodochrous J1 nitrile hydratase; experiment: Substrate specificity of nitrile hydratase activity (comparison strain); assay type: cell-based; conditions: compound as substrate; 3-cyanopyridine = 100
[3] = system: purified Rhodococcus sp. FZ4 nitrile hydratase; experiment: Substrate specificity of purified nitrile hydratase; assay type: biochemical
Description: A reaction mixture comprising nitrile hydratase solution (0.695 μmol/min; 0.025 ml), different substrates (0.500 ml) and potassium phosphate buffer (0.1 M; pH 7.0; 0.475 ml) was incubated at 20° C. for 5 to 10 min. The concentrations of the substrates used were in the range from 0.015 to 0.250 M. The reaction was stopped by adding MeOH. The amount of amide produced was determined by means of HPLC.

[4] = system: Rhodococcus sp. FZ4 nitrile hydratase; experiment: Substrate specificity of nitrile hydratase activity, resting cells; assay type: cell-based
Description: (§1) Nitrile hydratase activity was determined by incubating a reaction mixture comprising 3-cyanopyridine (1.0 M; 1.0 ml), potassium phosphate buffer (0.1 M, pH 7.0; 0.5 ml) and cell suspension (0.5 ml) with stirring at 20° C. for 5 min. The reaction was stopped by adding HCI (5 M; 0.1 ml). After filtration (0.2 μm filter) of the reaction mixture, the amount of nicotinamide produced was determined by means of HPLC (Waters Spherisorb 5 μ ODS2 (4.6×150 mm); KH2P04/H3P04 (10 mM; pH 2.8)/acetonitrile=9:1 (v/v); 1 ml/min; 230 nm). The total activity is expressed as μmol of nicotinamide produced/ (min×ml) and the specific activity is expressed as μmol of nicotinamide produced/(min×ml×OD610 nm).
Rhodococcus sp. FZ4 nitrile hydratase activity with respect to different substrates was determined according to Example 1, except that the appropriate substrate was used instead of 3-cyanopyridine and that the HPLC conditions were modified according to the substrate used.

[5] = system: Rhodococcus sp. GF270 nitrile hydratase; assay type: cell-based; conditions: incubation for 60 min
Description: as §1
A cell suspension was incubated at different 3-cyano-30 pyridine concentrations in the range from 0 to 10% (w/v) at 20° C. for 60 min. The cells were removed, washed and resuspended in potassium phosphate buffer (0.1 M; pH 7.0).
(§2) The influence of 3-cyanopyridine concentration on the nitrile hydratase activities of Rhodococcus sp. FZ4, Rhodococcus sp. GF270, Amycolatopsis sp. NA40 and Rhodococcus rhodochrous J1 was determined according to Example 9 using the respective microorganism and the 3-cyanopyridine concentrations indicated in Table 10.

[6] = system: Rhodococcus sp. FZ4 nitrile hydratase; assay type: cell-based
Description: as §1
(§3) The preculture medium of Table 2 was inoculated with strain Rhodococcus sp. FZ4 (DSM 13597), followed by incubation with shaking at 28° C. for 1 to 2 days. The preculture was transferred into the culture medium of Table 5, which contained different inducers, and cultured with shaking at 28° C. for 3 days. Nitrile hydratase activity was determined according to Example 1. Rhodococcus sp.

[7] = system: Rhodococcus sp. FZ4 nitrile hydratase; assay type: cell-based; conditions: for Relative activity: incubation for 60 min
Description: as §1
(§4) […] The cells were removed, washed and resuspended in potassium phosphate buffer (0.1 M; pH 7.0).
as §2

[8] = system: Amycolatopsis sp. NA40 nitrile hydratase; assay type: cell-based; conditions: incubation for 15 min
Description: as §1, §4, §2

[9] = system: Amycolatopsis sp. NA40 nitrile hydratase; experiment: KM value for 3-cyanopyridine, resting cells; assay type: cell-based; conditions: 30° C., pH 7.0
Description: The reaction was stopped by adding HC1(2 M; 0.1 ml).
FZ4, Rhodococcus sp. GF270 (DSM 12211; WO 99/05306), Amycolatopsis sp. NA40 (DSM 11617; WO 99/05306) and Rhodococcus rhodochrous J1 were determined according to Example 11 using the respective microorganism.

[10] = system: Rhodococcus rhodochrous J1 nitrile hydratase; assay type: cell-based; conditions: incubation for 15 min
Description: as §1, with “Nitrile hydratase activity was determined by incubating a reaction mixture comprising 3-cyanopyridine (1.0 M; 1.0 ml), potassium phosphate buffer (0.1 M, pH 7.0; 0.5 ml) and cell suspension (0.5 ml) with stirring at 20° C. for 5 min.” left out
as §4, §2

[11] = system: Rhodococcus sp. FZ4; assay type: cell-based
Description: as §3

[12] = water; cited from earlier work
[13] = system: Rhodococcus sp. FZ4 nitrile hydratase; assay type: cell-based; conditions: pH 7
Description: The reaction was stopped by adding MeOH. The reaction mixture was centrifuged (12 000 rpm, 5 min) and the amount of acetamide produced was determined by means of HPLC according to Example 14.

[14] = system: purified Rhodococcus sp. FZ4 nitrile hydratase; conditions: read-out: KM value for acetonitrile; pH 7
Description: The reaction mixture was incubated at 20° C. for 10 min. The reaction was stopped by adding methanol and the amount of acetamide produced was determined by means of HPLC according to Example 14.

[15] = system: Rhodococcus sp. FZ4 nitrile hydratase; assay type: cell-based; remark: listed apart in the source
Description: A reaction mixture comprising acetonitrile (0.2-19.0 M; 1.0-1.6 ml), aqueous NaCl solution (0.85% (w/v); 0.6-0.0 ml), potassium phosphate buffer (0.1 M; pH 7.0; 0.3 ml) and cell suspension (0.1 ml) was incubated with shaking at 20° C. for 10 min. The total reaction volume was 2.0 ml. The reaction was stopped by adding MeOH. The reaction mixture was centrifuged (12 000 rpm, 5 min) and the amount of acetamide produced was determined by means of HPLC according to Example 14.

[16] = system: Rhodococcus sp. FZ4; experiment: Influence of cofactors on growth during cultivation; assay type: cell-based; conditions: basal medium with cofactor 0.004 g/l, 28° C., 2 to 3 days
Description: (§5) The preculture medium of Table 2 was inoculated with strain Rhodococcus sp. FZ4 (DSM 13597), followed by incubation with shaking at 28° C. for 1 to 2 days. The preculture was transferred into the basal medium of Table 3, which contains either CoCl 2 or FeSO4, and cultured with shaking at 28° C. for 2 to 3 days. Nitrile hydratase activity was determined according to Example 1. A nitrile hydratase activity was present only when culturing Rhodococcus sp. FZ4 in the presence of cobalt.

[17] = system: Rhodococcus sp. FZ4 nitrile hydratase; experiment: Influence of cofactors on nitrile hydratase activity during cultivation; assay type: cell-based; conditions: basal medium with cofactor 0.004 g/l, 28° C., 2 to 3 days; substrate 3-cyanopyridine
Description: as §1
as §5, with “1.” for “1. A nitrile hydratase activity was present only when culturing Rhodococcus sp. FZ4 in the presence of cobalt.”

[18] = system: purified Rhodococcus sp. FZ4 nitrile hydratase; experiment: Influence of metal ions on the activity of purified nitrile hydratase; assay type: biochemical; conditions: no addition = 100
Description: A solution comprising nitrile hydratase solution (0.695 μmol/min; 0.025 ml), potassium phosphate buffer (0.1 M; pH 7.0; 0.475 ml), distilled water (0.150 ml) and different potential inhibitors (0.100 ml) was incubated at 20° C. for 5 min. This was followed by the addition of 3-cyanopyridine (1.0 M; 0.250 ml). The concentration of the inhibitors in the reaction mixture was 1.0 mM. The reaction mixture was incubated at 20° C. for 10 min. The reaction was stopped by adding MeOH. The amount of nicotinamide produced was determined by means of HPLC according to Example 1.
The influence of metal ions on the activity of purified nitrile hydratase was carried out according to Example 24, but with the addition of metal ions instead of potential inhibitors. […]

[19] = system: Rhodococcus sp. FZ4 nitrile hydratase; assay type: cell-based; remark: listed apart in the source
Description: as §1
(§6) A cell suspension was incubated at different nicotinamide concentrations in the range from 0 to 20% (w/v) at 20° C. for 24 h. The cells were removed, washed and resuspended in potassium phosphate buffer (0.1 M; pH 7.0).
as §2, with “nicotinamide” for “3-cyanopyridine”, “nicotinamide concentration” for “3-cyanopyridine concentrations”, “11.” for “10.”

[20] = system: Rhodococcus sp. GF270 nitrile hydratase; assay type: cell-based
Description: as §1, §6
as §2, with “nicotinamide” for “3-cyanopyridine”, “nicotinamide concentration” for “3-cyanopyridine concentrations”, “11.” for “10.”

[21] = culture medium with inducer 0.2% (w/v), 28° C., 3 days, substrate 3-cyanopyridine
[22] = culture medium with inducer 0.2% (w/v), 28° C., 3 days

In the case of `N#Cc1cccnc1` [3-Cyanopyridine], the Km [1] is reported as 80.5 mM, the Relative activity [2] is reported as 100% and the Total activity ([3]; substrate concentration 0.25 M, corresponds to 100%) is reported as “^aTotal activity: 4,164 μmol/(min × .ml)”. The Relative activity ([3]; substrate concentration 0.25 M, reference = 100) was 100^a %, the Relative activity ([4]; compound as substrate, 3-cyanopyridine = 100, resting cells, 20° C.) was 100% and the Relative activity ([5]; 3-cyanopyridine 2.5% (w/v)) was 100^a %. The Relative activity ([5]; 3-cyanopyridine 5.0% (w/v)) was 100^a %, the Relative activity ([5]; 3-cyanopyridine 7.5% (w/v)) was 100^a % and the Relative activity ([5]; 3-cyanopyridine 10.0% (w/v)) was 100^a %. For the same compound, the Specific activity [6, 21] was 2.21 μmol/(min × ml × OD610 nm), the Total activity [6, 21] was 12.3 µmol/min/mL and the “nitrile hydratase activity after incubation with 3-cyanopyridine” value ([7]; 0 to 20% (w/v) for 60 minutes, 20° C.) was “corresponded approximately to the original nitrile hydratase activity”. For the same compound, the Relative activity ([7]; 3-cyanopyridine 2.5% (w/v)) was 100^a %, the Relative activity ([7]; 3-cyanopyridine 5.0% (w/v)) was 100^a % and the Relative activity ([7]; 3-cyanopyridine 7.5% (w/v)) was 100^a %. For the same compound, the Relative activity ([7]; 3-cyanopyridine 10.0% (w/v)) was 100^a %, the Relative activity ([8]; 3-cyanopyridine 2.5% (w/v)) was 74^b % and the Relative activity ([8]; 3-cyanopyridine 5.0% (w/v)) was 56^b %. For the same compound, the Relative activity ([8]; 3-cyanopyridine 7.5% (w/v)) was 47^b %, the Relative activity ([8]; 3-cyanopyridine 10.0% (w/v)) was 16^b % and the Km [9] was 41.7 mM. For the same compound, the Relative activity ([10]; 3-cyanopyridine 5.0% (w/v)) was 86^b %, the Relative activity ([10]; 3-cyanopyridine 10.0% (w/v)) was 63^b % and the Growth [11, 22] was 5.54 OD610 nm.

In the case of `CC(N)=O` [Acetamide], the Specific activity [6, 21] is listed as 4.98 μmol/(min × ml × OD610 nm), the Total activity [6, 21] is listed as 21.6 µmol/min/mL and the “concentration of an acetamide solution saturated at 30° C.” value [12] is listed as 220-230 g of acetamide in 100 ml of water. For the same compound, the Growth [11, 22] was 4.37 OD610 nm.

In the case of `CC#N` [Acetonitrile], the “nitrile hydratase activity after incubation with acetonitrile” value [13] is reported as “nearly constant”, the Km [14] is reported as 2.84 mM and the “nitrile hydratase activity as a function of acetonitrile concentration” value [15] is reported as “nearly constant”. The Relative activity [3] was 1 008%, the Relative activity [4] was 646% and the Specific activity [6] was 4.13 μmol/(min × ml × OD610 nm). The Total activity [6] was 18.4 µmol/min/mL and the Growth [11] was 4.46 OD610 nm.

For `[Cl-].[Cl-].[Co+2]` [CoC12], the Growth [16] was 2.79 OD610 nm, the Specific activity [17] was 13.1 μmol/(min × ml × OD610 nm) and the Total activity [17] was 38.1 µmol/min/mL. The Relative activity ([18]; metal ions 1.0 mM) was 110%.

For `O=S(=O)([O-])[O-].[Fe+2]` [FeSO4], the Growth [16] was 2.86 OD610 nm, the Specific activity [17] was 0.346 μmol/(min × ml × OD610 nm) and the Total activity [17] was 0.989 µmol/min/mL. For the same compound, the Relative activity ([18]; metal ions 1.0 mM) was 113%.

Compound `[Cl][Hg][Cl]` [HgCl2] has a Relative activity ([18]; metal ions 0.1 mM (footnote b)) of 0%.

For `[Cl][Mn][Cl]` [MnCl2], the Relative activity ([18]; metal ions 1.0 mM) was 123%.

`[Cl][Ni][Cl]` [NiCl2] showed a Relative activity ([18]; metal ions 1.0 mM) of 123%.

In the case of `NC(=O)c1cccnc1` [Nicotinamide], the Specific activity [6] is reported as 1.39 μmol/(min × ml × OD610 nm), the Total activity [6] is reported as 4.94 µmol/min/mL and the Relative activity [19] is reported as 100%. For the same compound, the “nitrile hydratase activity after incubation with nicotinamide” value [19] was “corresponded approximately to the original nitrile hydratase activity”, the Relative activity [20] was 100% and the Growth [11] was 3.55 OD610 nm.

`O=S(=O)([O-])[O-].[Zn+2]` [ZnSO4] gave a Relative activity ([18]; metal ions 1.0 mM) of 121%.
